# Measurements reported in ChEMBL document CHEMBL3217712, “Improved biodistribution, pharmacokinetics and photodynamic efficacy using a new photostable sulfonamide bacteriochlorin” (Medchemcomm, 2012).
# The source made the active and inactive calls. No cut-off for these calls is given here.
# What was measured:
# Nucleic Acid [1] = assay: Ratio of drug level in tumor to skin in mouse Cloudman S91 tumor bearing DBA2 mouse at 10 mg/kg, ip; assay type: ADME, organism-based; design: dose 10 mg/kg, route intraperitoneal; settings: in vivo
# Nucleic Acid [2] = assay: Ratio of drug level in tumor to muscle in mouse Cloudman S91 tumor bearing DBA2 mouse at 10 mg/kg, ip; assay type: ADME, organism-based; design: dose 10 mg/kg, route intraperitoneal; settings: in vivo
# Nucleic Acid [3] = assay: Ratio of drug level in tumor to skin in ip dosed human HT29 tumor bearing mouse; assay type: ADME, organism-based; settings: in vivo
# Nucleic Acid [4] = assay: Ratio of drug level in tumor to muscle in ip dosed human HT29 tumor bearing mouse; assay type: ADME, organism-based; settings: in vivo
# [5] = n-Octanol-water partition coefficient, log P of the compound; assay type: physicochemical
# S91 [6] = assay: Photodynamic efficacy against mouse Cloudman S91 cells allografted in DBA2 mouse assessed as disappearance of tumor at 10 mg/kg, ip followed by irradiated with 96 J cm'-2 laser light for 20 mins; assay type: functional, organism-based; design: dose 10 mg/kg
# S91 [7] = assay: Photodynamic efficacy against mouse Cloudman S91 cells allografted in DBA2 mouse assessed as hyperaemia, oedema and progressive darkening of tumor at 10 mg/kg, ip followed by irradiated with 96 J cm'-2 laser light for 20 mins; assay type: functional, organism-based; design: dose 10 mg/kg
# S91 [8] = assay: Photodynamic efficacy against mouse Cloudman S91 cells allografted in DBA2 mouse assessed as necrotic scab formation in tumor at 10 mg/kg, ip followed by irradiated with 96 J cm'-2 laser light for 20 mins measured after 12 hrs; assay type: functional, organism-based; design: dose 10 mg/kg
# S91 [9] = assay: Photodynamic efficacy against mouse Cloudman S91 cells allografted in DBA2 mouse assessed as necrotic and flat tumor at 10 mg/kg, ip followed by irradiated with 96 J cm'-2 laser light for 20 mins measured after 1 to 2 days; assay type: functional, organism-based; design: dose 10 mg/kg
# Mus musculus = assay: Toxicity in mouse Cloudman S91 cells allografted DBA2 mouse assessed as skin damage with oedema and large scab formation at 10 mg/kg, ip followed by irradiated with 96 J cm'-2 laser light for 20 mins measured after 24 hrs; assay type: organism-based; design: dose 10 mg/kg, route intraperitoneal; settings: in vivo
# S91 [10] = assay: Antitumor activity against mouse Cloudman S91 cells allografted in DBA2 mouse at 10 mg/kg, ip; assay type: functional, organism-based; design: dose 10 mg/kg
# S91 [11] = assay: Photodynamic efficacy against mouse Cloudman S91 cells allografted in DBA2 mouse assessed as disappearance of tumor at 10 mg/kg, ip followed by irradiated with 96 J cm'-2 laser light for 20 mins measured after 80 days; assay type: functional, organism-based; design: dose 10 mg/kg
# S91 [12] = assay: Photodynamic efficacy against mouse Cloudman S91 cells allografted in DBA2 mouse assessed as time of tumor growth delay at 10 mg/kg, ip followed by irradiated with 96 J cm'-2 laser light for 20 mins; assay type: functional; settings: route intraperitoneal
# S91 [13] = assay: Photodynamic efficacy against mouse Cloudman S91 cells allografted in DBA2 mouse assessed as tumor growth delay at 10 mg/kg, ip followed by irradiated with 96 J cm'-2 laser light for 20 mins relative to sulfonated bacteriochlorin; assay type: functional; settings: route intraperitoneal
# [14] = Biodistribution in mouse Cloudman S91 tumor bearing DBA2 mouse blood at 10 mg/kg, ip after 2 hrs; assay type: ADME, organism-based; design: dose 10 mg/kg, route intraperitoneal; settings: read-out: Drug uptake
# [15] = Biodistribution in mouse Cloudman S91 tumor bearing DBA2 mouse tumour at 10 mg/kg, ip after 2 hrs; assay type: ADME, organism-based, Neoplasm; design: dose 10 mg/kg, route intraperitoneal; settings: read-out: Drug uptake
# [16] = Biodistribution in mouse Cloudman S91 tumor bearing DBA2 mouse skin at 10 mg/kg, ip after 2 hrs; assay type: ADME, organism-based, Zone of skin; design: dose 10 mg/kg, route intraperitoneal; settings: read-out: Drug uptake
# [17] = Biodistribution in mouse Cloudman S91 tumor bearing DBA2 mouse muscle at 10 mg/kg, ip after 2 hrs; assay type: ADME, organism-based, Muscle tissue; design: dose 10 mg/kg, route intraperitoneal; settings: read-out: Drug uptake
# [18] = Biodistribution in mouse Cloudman S91 tumor bearing DBA2 mouse spleen at 10 mg/kg, ip after 2 hrs; assay type: ADME, organism-based; design: dose 10 mg/kg, route intraperitoneal; settings: read-out: Drug uptake
# [19] = Biodistribution in mouse Cloudman S91 tumor bearing DBA2 mouse liver at 10 mg/kg, ip after 2 hrs; assay type: ADME, organism-based; design: dose 10 mg/kg, route intraperitoneal; settings: read-out: Drug uptake
# [20] = Biodistribution in mouse Cloudman S91 tumor bearing DBA2 mouse kidneys at 10 mg/kg, ip after 2 hrs; assay type: ADME, organism-based; design: dose 10 mg/kg, route intraperitoneal; settings: kidney, read-out: Drug uptake
# [21] = Biodistribution in mouse Cloudman S91 tumor bearing DBA2 mouse intestine at 10 mg/kg, ip after 2 hrs; assay type: ADME, organism-based; design: dose 10 mg/kg, route intraperitoneal; settings: read-out: Drug uptake
# [22] = Biodistribution in mouse Cloudman S91 tumor bearing DBA2 mouse heart at 10 mg/kg, ip after 2 hrs; assay type: ADME, organism-based; design: dose 10 mg/kg, route intraperitoneal; settings: read-out: Drug uptake
# [23] = Biodistribution in mouse Cloudman S91 tumor bearing DBA2 mouse lungs at 10 mg/kg, ip after 2 hrs; assay type: ADME, organism-based; design: dose 10 mg/kg, route intraperitoneal; settings: lung, read-out: Drug uptake
# [24] = Biodistribution in mouse Cloudman S91 tumor bearing DBA2 mouse blood at 10 mg/kg, ip after 6 hrs; assay type: ADME, organism-based; design: dose 10 mg/kg, route intraperitoneal; settings: read-out: Drug uptake
# [25] = Biodistribution in mouse Cloudman S91 tumor bearing DBA2 mouse tumour at 10 mg/kg, ip after 6 hrs; assay type: ADME, organism-based, Neoplasm; design: dose 10 mg/kg, route intraperitoneal; settings: read-out: Drug uptake
# [26] = Biodistribution in mouse Cloudman S91 tumor bearing DBA2 mouse skin at 10 mg/kg, ip after 6 hrs; assay type: ADME, organism-based, Zone of skin; design: dose 10 mg/kg, route intraperitoneal; settings: read-out: Drug uptake
# [27] = Biodistribution in mouse Cloudman S91 tumor bearing DBA2 mouse muscle at 10 mg/kg, ip after 6 hrs; assay type: ADME, organism-based, Muscle tissue; design: dose 10 mg/kg, route intraperitoneal; settings: read-out: Drug uptake
# [28] = Biodistribution in mouse Cloudman S91 tumor bearing DBA2 mouse spleen at 10 mg/kg, ip after 6 hrs; assay type: ADME, organism-based; design: dose 10 mg/kg, route intraperitoneal; settings: read-out: Drug uptake
# [29] = Biodistribution in mouse Cloudman S91 tumor bearing DBA2 mouse liver at 10 mg/kg, ip after 6 hrs; assay type: ADME, organism-based; design: dose 10 mg/kg, route intraperitoneal; settings: read-out: Drug uptake
# [30] = Biodistribution in mouse Cloudman S91 tumor bearing DBA2 mouse kidneys at 10 mg/kg, ip after 6 hrs; assay type: ADME, organism-based; design: dose 10 mg/kg, route intraperitoneal; settings: kidney, read-out: Drug uptake
# [31] = Biodistribution in mouse Cloudman S91 tumor bearing DBA2 mouse intestine at 10 mg/kg, ip after 6 hrs; assay type: ADME, organism-based; design: dose 10 mg/kg, route intraperitoneal; settings: read-out: Drug uptake
# [32] = Biodistribution in mouse Cloudman S91 tumor bearing DBA2 mouse heart at 10 mg/kg, ip after 6 hrs; assay type: ADME, organism-based; design: dose 10 mg/kg, route intraperitoneal; settings: read-out: Drug uptake
# [33] = Biodistribution in mouse Cloudman S91 tumor bearing DBA2 mouse lungs at 10 mg/kg, ip after 6 hrs; assay type: ADME, organism-based; design: dose 10 mg/kg, route intraperitoneal; settings: lung, read-out: Drug uptake
# [34] = Biodistribution in mouse Cloudman S91 tumor bearing DBA2 mouse blood at 10 mg/kg, ip after 12 hrs; assay type: ADME, organism-based; design: dose 10 mg/kg, route intraperitoneal; settings: read-out: Drug uptake
# [35] = Biodistribution in mouse Cloudman S91 tumor bearing DBA2 mouse tumour at 10 mg/kg, ip after 12 hrs; assay type: ADME, organism-based, Neoplasm; design: dose 10 mg/kg, route intraperitoneal; settings: read-out: Drug uptake
# [36] = Biodistribution in mouse Cloudman S91 tumor bearing DBA2 mouse skin at 10 mg/kg, ip after 12 hrs; assay type: ADME, organism-based, Zone of skin; design: dose 10 mg/kg, route intraperitoneal; settings: read-out: Drug uptake
compound,measurement,setting,value
CCNS(=O)(=O)c1ccc(Cl)c(-c2c3nc(c(-c4c(Cl)ccc(S(=O)(=O)NCC)c4Cl)c4ccc([nH]4)c(-c4c(Cl)ccc(S(=O)(=O)NCC)c4Cl)c4nc(c(-c5c(Cl)ccc(S(=O)(=O)NCC)c5Cl)c5ccc2[nH]5)CC4)CC3)c1Cl,Ratio,Nucleic Acid [1],6
same,Ratio,Nucleic Acid [2],7
same,Ratio,Nucleic Acid [3],1
same,Ratio,Nucleic Acid [4],5
same,logP,[5],1.83
same,Activity,S91 [6],Active
same,Activity,S91 [7],Active
same,Activity,S91 [8],Active
same,Activity,S91 [9],Active
same,Activity,Mus musculus,Toxic
same,Activity,S91 [10],inactive
same,Activity,S91 [11],inactive
same,Time,S91 [12],44 days
same,fold change (FC),S91 [13],1.6
same,concentration at 2 h,[14],90 ng/g
same,concentration at 2 h,[15],40 ng/g
same,concentration at 2 h,[16],50 ng/g
same,concentration at 2 h,[17],30 ng/g
same,concentration at 2 h,[18],2300 ng/g
same,concentration at 2 h,[19],980 ng/g
same,concentration at 2 h,[20],100 ng/g
same,concentration at 2 h,[21],200 ng/g
same,concentration at 2 h,[22],40 ng/g
same,concentration at 2 h,[23],200 ng/g
same,concentration at 6 h,[24],240 ng/g
same,concentration at 6 h,[25],160 ng/g
same,concentration at 6 h,[26],70 ng/g
same,concentration at 6 h,[27],50 ng/g
same,concentration at 6 h,[28],7000 ng/g
same,concentration at 6 h,[29],4800 ng/g
same,concentration at 6 h,[30],400 ng/g
same,concentration at 6 h,[31],1800 ng/g
same,concentration at 6 h,[32],100 ng/g
same,concentration at 6 h,[33],300 ng/g
same,concentration at 12 h,[34],970 ng/g
same,concentration at 12 h,[35],370 ng/g
same,concentration at 12 h,[36],180 ng/g
